Read-outs that look alike come from different tables or passages of the source.
Experiments:
[1] = tested on: MCF7 human breast cancer cell line; experiment: MTT cytotoxicity assay on MCF7; conditions: read-out: MCF7 IC50
Experimental: (§1) MCF7 and NIH3T3 were grown in Dulbecco’s Modified Eagle Medium (DMEM, Sigma-Aldrich, USA); supplemented with 10% fetal bovine serum (Capricorn Scientific, Ebsdorfergrund, Germany) and 1% antibiotics (100 mg/mL of streptomycin and 100 units of penicillin, Sigma-Aldrich, Taufkirchen, Germany); and incubated until confluent at 37 °C in a humidified incubator with a 5% CO2 atmosphere.
(§2) The cytotoxicity assays were performed using the human MCF7, mouse fibroblast NIH3T3, and human non-tumorigenic mammary epithelial MCF12A cell lines in accordance with the MTT procedure previously reported [37, 38].
(§3) The compounds were dissolved in dimethyl sulfoxide (DMSO, AppliChem, Darmstadt, Germany) and diluted to the required concentrations with fresh medium, while the solvent control was prepared with a medium containing 0.1% DMSO. The half-maximal inhibitory concentrations (IC50) of the compounds were determined by calculating the cell viability via the MTT assay. The cells were harvested and counted using an automated cell counter (LUNA II, Logos Biosystems, Gyeonggi, Republic of Korea). […] Following a 24 h incubation period, the MTT solution was added to the wells to a final concentration of 5 mg/mL. The cells were incubated for a 3 h period, after which point the medium was removed and 100 µL of DMSO was added. The absorbances were measured at 540 nm using a MultiMode Plate Reader (BioTek, HTX Synergy, Winooski, Vermont, USA).

[2] = tested on: NIH3T3 mouse fibroblast cell line; experiment: MTT cytotoxicity assay on NIH3T3; conditions: read-out: NIH3T3 IC50
Experimental: as §1, §2, §3

Aromatase (CYP19A) [3] = target: T1, Aromatase (CYP19A) (Homo sapiens, UniProt P11511); conditions: read-out: Aromatase IC50; means of quartet assays
T1 sequence (P11511 1-503): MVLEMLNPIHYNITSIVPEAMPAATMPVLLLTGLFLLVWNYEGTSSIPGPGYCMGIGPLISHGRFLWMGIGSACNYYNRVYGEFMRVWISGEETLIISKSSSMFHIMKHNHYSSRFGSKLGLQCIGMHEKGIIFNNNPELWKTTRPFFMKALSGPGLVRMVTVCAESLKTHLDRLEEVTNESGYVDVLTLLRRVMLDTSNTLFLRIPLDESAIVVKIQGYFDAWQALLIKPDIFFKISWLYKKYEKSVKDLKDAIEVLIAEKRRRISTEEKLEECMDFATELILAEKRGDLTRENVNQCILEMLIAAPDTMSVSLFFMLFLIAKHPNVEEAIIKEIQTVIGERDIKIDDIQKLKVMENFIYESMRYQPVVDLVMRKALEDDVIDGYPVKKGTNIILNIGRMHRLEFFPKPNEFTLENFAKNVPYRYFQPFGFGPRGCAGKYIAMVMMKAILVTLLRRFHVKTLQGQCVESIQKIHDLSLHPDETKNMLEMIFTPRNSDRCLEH

Aromatase (CYP19A) [4] = target: T1, Aromatase (CYP19A); experiment: biochemical
[5] = tested on: MCF12A non-tumorigenic mammary cell line; experiment: MTT cell viability on MCF12A; format: cell-based, human; conditions: concentration range 1 mM–1 nM, 24 h
Experimental: This fact is of crucial importance to the effective and safe treatment of cancer since selectivity refers to the ability of a drug to target cancer cells while minimizing the harm to healthy cells. This targeted approach has the potential to yield more efficacious therapies with a reduced incidence of adverse effects, thereby enhancing patient outcomes.
MCF12A was maintained in DMEM/Ham’s F12 (1:1); supplemented with 5% horse serum, 20 ng/mL of human epidermal growth factor, 0.01 mg/mL of bovine insulin, 500 ng/mL of hydrocortisone, and 100 U/mL (50 µg/mL) of penicillin–streptomycin; and maintained at 37 °C in a humidified atmosphere of 5% CO2.

4-methyl-N-(2-morpholinethyl)benzenesulfonamide [Compound 16]
IC50 ([1]; MTT, 24 h, means of quartet assays): 19.6 ± 0.678 µM
IC50 ([2]; MTT, 24 h, healthy model, means of quartet assays): 50.9 ± 1.51 µM
IC50 (Aromatase (CYP19A) [3]): 0.16 ± 0.006 µM

O=S(=O)(NCCc1ccccn1)c1ccccc1 [Compound 1, N-(2-(pyridin-2-yl)ethyl)benzenesulfonamide]
IC50 ([1]; Homo sapiens, MCF7, 24 h): 7.51 ± 0.296 µM
IC50 ([2]; Mus musculus, NIH3T3, 24 h): 46.9 ± 1.99 µM

Cc1ccc(S(=O)(=O)NCCc2ccccn2)cc1 [Compound 2, 4-methyl-N-(2-(pyridin-2-yl)ethyl)benzenesulfonamide]
IC50 (Aromatase (CYP19A) [4]): 0.248 ± 0.01 µM
IC50 ([1]; Homo sapiens, MCF7, 24 h): 15.4 ± 0.356 µM
IC50 ([2]; Mus musculus, NIH3T3, 24 h): 51.4 ± 1.74 µM

Cc1ccc(S(=O)(=O)Nc2ccccn2)cc1 [Compound 3, 4-metyl-N-(pyridin-2-yl)benzenesulfonamide]
IC50 (Aromatase (CYP19A) [4]): 0.035 ± 0.001 µM
IC50 ([1]; Homo sapiens, MCF7, 24 h): 2.68 ± 0.104 µM
IC50 ([2]; Mus musculus, NIH3T3, 24 h): 64.3 ± 1.83 µM

Cc1ccc(S(=O)(=O)Nc2ccc(Cl)cn2)cc1 [Compound 4, N-(5-chloropyridin-2-yl)-4-methylbenzenesulfonamide]
IC50 (Aromatase (CYP19A) [4]): > 100 µM
IC50 ([1]; Homo sapiens, MCF7, 24 h): > 100 µM
IC50 ([2]; Mus musculus, NIH3T3, 24 h): > 100 µM

Cc1ccc(S(=O)(=O)Nc2ncc(Cl)cc2Cl)cc1 [Compound 5, N-(3,5-dichloropyridin-2-yl)-4-methylbenzenesulfonamide]
IC50 (Aromatase (CYP19A) [4]): > 100 µM
IC50 ([1]; Homo sapiens, MCF7, 24 h): > 100 µM
IC50 ([2]; Mus musculus, NIH3T3, 24 h): 76.6 ± 1.13 µM

O=S(=O)(Cc1ccccc1)Nc1ncc(Cl)cc1Cl [Compound 6, N-(3,5-dichloropyridin-2-yl)-1-phenylmethanesulfonamide]
IC50 (Aromatase (CYP19A) [4]): > 100 µM
IC50 ([1]; Homo sapiens, MCF7, 24 h): 25.3 ± 0.945 µM
IC50 ([2]; Mus musculus, NIH3T3, 24 h): > 100 µM

O=S(=O)(NC1CCN(Cc2ccccc2)CC1)c1ccccc1 [Compound 7, N-(1-benzylpiperidin-4-yl)benzenesulfonamide]
IC50 (Aromatase (CYP19A) [4]): > 1000 µM
IC50 ([1]; Homo sapiens, MCF7, 24 h): 28.5 ± 0.514 µM
IC50 ([2]; Mus musculus, NIH3T3, 24 h): 44.3 ± 1.05 µM

Cc1ccc(S(=O)(=O)NC2CCN(Cc3ccccc3)CC2)cc1 [Compound 8, N-(1-benzylpiperidin-4-yl)-4-methylbenzenesulfonamide]
IC50 (Aromatase (CYP19A) [4]): > 1000 µM
IC50 ([1]; Homo sapiens, MCF7, 24 h): > 100 µM
IC50 ([2]; Mus musculus, NIH3T3, 24 h): > 100 µM

O=S(=O)(NCCN1CCCCC1)c1ccccc1 [Compound 9, N-(2-(piperidin-1-yl)ethyl)benzenesulfonamide]
effect on MCF12A cell viability [5]: no effects
IC50 ([1]; Homo sapiens, MCF7, 24 h): 3.29 ± 0.119 µM
IC50 ([2]; Mus musculus, NIH3T3, 24 h): 58.2 ± 0.952 µM

O=S(=O)(Cc1ccccc1)NCCN1CCCCC1 [Compound 10, 1-phenyl-N-(2-(piperidin-1-yl)ethyl)methanesulfonamide]
IC50 (Aromatase (CYP19A) [4]): 0.052 ± 0.002 µM
IC50 ([1]; Homo sapiens, MCF7, 24 h): 6.2 ± 0.258 µM
IC50 ([2]; Mus musculus, NIH3T3, 24 h): 30.9 ± 1.03 µM

Cc1ccc(S(=O)(=O)NCCN2CCCCC2)cc1 [Compound 11]
IC50 ([1]; Homo sapiens, MCF7, 24 h): 43.6 ± 1.86 µM
IC50 ([2]; Mus musculus, NIH3T3, 24 h): 29.6 ± 0.812 µM

Cc1ccc(S(=O)(=O)NCCCN2CCCC2)cc1 [Compound 12, 4-methyl-N-(3-(pyrrolidin-1-yl)propyl)benzenesulfonamide]
IC50 (Aromatase (CYP19A) [4]): > 1000 µM
IC50 ([1]; Homo sapiens, MCF7, 24 h): 32.1 ± 1.17 µM
IC50 ([2]; Mus musculus, NIH3T3, 24 h): > 100 µM

CN1CCCC1CCNS(=O)(=O)c1ccccc1 (stereo not drawn) [Compound 13, N-(2-(1-methylpyrrolidin-2-yl)ethyl)benzenesulfonamide]
IC50 ([1]; Homo sapiens, MCF7, 24 h): 8.06 ± 0.319 µM
IC50 ([2]; Mus musculus, NIH3T3, 24 h): 49.6 ± 1.73 µM

Cc1ccc(S(=O)(=O)NCCC2CCCN2C)cc1 (stereo not drawn) [Compound 14, 4-methyl-N-(2-(1-methylpyrrolidin-2-yl)ethyl)benzenesulfonamide]
IC50 (Aromatase (CYP19A) [4]): 0.051 ± 0.001 µM
IC50 ([1]; Homo sapiens, MCF7, 24 h): 10.5 ± 0.477 µM
IC50 ([2]; Mus musculus, NIH3T3, 24 h): 56.1 ± 1.93 µM

O=S(=O)(NCCN1CCOCC1)c1ccccc1 [Compound 15, N-(2-morpholinethyl)benzenesulfonamide]
IC50 ([1]; Homo sapiens, MCF7, 24 h): 12.4 ± 0.417 µM
IC50 ([2]; Mus musculus, NIH3T3, 24 h): 39.3 ± 0.995 µM

O=S(=O)(Cc1ccccc1)NCCN1CCOCC1 [Compound 17, N-(2-morpholinoethyl)-1-phenylmethanesulfonamide]
IC50 (Aromatase (CYP19A) [4]): 0.206 ± 0.009 µM
IC50 ([1]; Homo sapiens, MCF7, 24 h): 14.6 ± 0.522 µM
IC50 ([2]; Mus musculus, NIH3T3, 24 h): 43.1 ± 1.03 µM

COc1cccc2c1C(=O)c1c(O)c3c(c(O)c1C2=O)C[C@@](O)(C(=O)CO)C[C@@H]3O[C@H]1C[C@H](N)[C@H](O)[C@H](C)O1 [Doxorubicin, reference compound]
IC50 ([2]; Mus musculus, NIH3T3, 24 h): > 100 µM

Source: PMC12389619, “Discovery and Evaluation of Novel Sulfonamide Derivatives Targeting Aromatase in ER+ Breast Cancer” (Pharmaceuticals, 2025)
